Reference: ChEMBL document CHEMBL3853265 (Medchemcomm, 2016)

Tests used:
[1] = Toxicity in dog assessed as transient panting at 10 mg/kg, po administered as single dose measured up to 30 hrs post dose; format: organism-based, Canis lupus familiaris; conditions: in vivo
[2] = Plasma clearance in dog at 0.363 mg/kg, iv and 0.737 mg/kg, po; format: ADME, organism-based, Canis lupus familiaris
[3] = Drug metabolism in rat hepatocytes assessed as monooxidation and glucuronidation; format: ADME, cell-based, Hepatocyte
[4] = Toxicity in dog assessed as increase in body temperature at 100 mg/kg, po administered as single dose; format: organism-based, Canis lupus familiaris; conditions: in vivo
[5] = Toxicity in dog assessed as uncontrollable panting at 30 mg/kg, po administered as single dose; format: organism-based, Canis lupus familiaris; conditions: in vivo
[6] = Toxicity in dog assessed as emesis at 30 mg/kg, po administered as single dose measured 30 mins post dose; format: organism-based, Canis lupus familiaris; conditions: in vivo, 0.5 h
[7] = Toxicity in dog assessed as increase in heart rate at 30 mg/kg, po administered as single dose; format: organism-based, Canis lupus familiaris; conditions: in vivo
Cytochrome P450 2C9 = Cytochrome P450 2C9 (Homo sapiens, UniProt P11712); experiment: Inhibition of CYP2C9 (unknown origin); format: ADME
Sequence of Cytochrome P450 2C9 (P11712 whole entry): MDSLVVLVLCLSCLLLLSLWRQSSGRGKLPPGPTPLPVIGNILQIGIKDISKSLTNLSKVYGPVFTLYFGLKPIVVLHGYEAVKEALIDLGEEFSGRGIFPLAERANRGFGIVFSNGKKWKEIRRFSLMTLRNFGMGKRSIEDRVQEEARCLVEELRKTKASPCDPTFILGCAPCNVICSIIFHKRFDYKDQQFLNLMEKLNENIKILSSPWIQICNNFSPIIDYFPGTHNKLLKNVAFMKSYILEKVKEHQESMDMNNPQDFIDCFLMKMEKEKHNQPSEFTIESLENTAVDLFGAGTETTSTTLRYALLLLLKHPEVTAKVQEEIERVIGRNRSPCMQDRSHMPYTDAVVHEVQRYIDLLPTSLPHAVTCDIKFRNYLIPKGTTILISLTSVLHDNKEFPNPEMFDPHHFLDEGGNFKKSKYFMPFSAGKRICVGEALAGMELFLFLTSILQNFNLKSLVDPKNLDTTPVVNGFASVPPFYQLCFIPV

[8] = Toxicity in po dosed dog assessed as drug tolerance administered as single dose; format: organism-based, Canis lupus familiaris; conditions: in vivo
[9] = Toxicity in dog assessed as increase in body temperature at 30 mg/kg, po administered as single dose; format: organism-based, Canis lupus familiaris; conditions: in vivo
[10] = Drug metabolism in rat hepatocytes assessed as glucuronidation in presence of glutathione and water; format: ADME, cell-based, Hepatocyte
Cytochrome P450 3A4 = Cytochrome P450 3A4 (Homo sapiens, UniProt P08684); experiment: Inhibition of CYP3A4 (unknown origin); format: ADME
Sequence of Cytochrome P450 3A4 (P08684 whole entry): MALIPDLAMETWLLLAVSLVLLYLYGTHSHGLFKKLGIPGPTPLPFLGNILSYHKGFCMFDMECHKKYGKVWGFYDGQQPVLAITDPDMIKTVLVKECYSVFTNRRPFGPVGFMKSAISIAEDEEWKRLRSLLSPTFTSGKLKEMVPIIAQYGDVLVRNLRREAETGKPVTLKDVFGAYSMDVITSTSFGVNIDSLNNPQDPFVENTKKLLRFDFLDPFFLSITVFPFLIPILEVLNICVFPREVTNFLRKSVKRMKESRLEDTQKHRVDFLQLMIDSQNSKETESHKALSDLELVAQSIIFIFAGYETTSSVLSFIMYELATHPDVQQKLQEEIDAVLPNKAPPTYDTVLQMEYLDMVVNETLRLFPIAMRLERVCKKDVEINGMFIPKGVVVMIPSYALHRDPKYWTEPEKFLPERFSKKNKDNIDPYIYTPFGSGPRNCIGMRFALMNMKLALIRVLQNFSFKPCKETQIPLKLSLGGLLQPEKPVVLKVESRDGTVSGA

[11] = Unbound clearance in dog at 0.363 mg/kg, iv and 0.737 mg/kg, po; format: ADME, organism-based, Canis lupus familiaris; conditions: in vivo
Rattus norvegicus [12] = experiment: Toxicity in Wistar Han rat assessed as centrilobular hepatocyte hypertrophy at 100 mg/kg/day, po administered for 14 days; format: organism-based; conditions: hepatocytes, 336 h
[13] = Drug metabolism in rat hepatocytes assessed as monooxidation; format: ADME, cell-based, Hepatocyte
[14] = Volume of distribution at steady state in dog at 0.363 mg/kg, iv and 0.737 mg/kg, po; format: ADME, organism-based, Canis lupus familiaris; conditions: in vivo, read-out: Vdss
Rattus norvegicus [15] = experiment: Toxicity in Wistar Han rat assessed as increase in liver weight at >= 30 mg/kg/day, po administered for 14 days; format: organism-based; conditions: in vivo, 336 h
[16] = Half life in dog at 0.363 mg/kg, iv and 0.737 mg/kg, po; format: ADME, organism-based, Canis lupus familiaris; conditions: in vivo
BCRP (ABCG2) = molecular target: T1, BCRP (ABCG2) (Homo sapiens, UniProt Q9UNQ0); experiment: Substrate activity at BCRP (unknown origin) assessed as efflux ratio of permeability; format: ADME; conditions: not told
T1 sequence (Q9UNQ0 whole entry): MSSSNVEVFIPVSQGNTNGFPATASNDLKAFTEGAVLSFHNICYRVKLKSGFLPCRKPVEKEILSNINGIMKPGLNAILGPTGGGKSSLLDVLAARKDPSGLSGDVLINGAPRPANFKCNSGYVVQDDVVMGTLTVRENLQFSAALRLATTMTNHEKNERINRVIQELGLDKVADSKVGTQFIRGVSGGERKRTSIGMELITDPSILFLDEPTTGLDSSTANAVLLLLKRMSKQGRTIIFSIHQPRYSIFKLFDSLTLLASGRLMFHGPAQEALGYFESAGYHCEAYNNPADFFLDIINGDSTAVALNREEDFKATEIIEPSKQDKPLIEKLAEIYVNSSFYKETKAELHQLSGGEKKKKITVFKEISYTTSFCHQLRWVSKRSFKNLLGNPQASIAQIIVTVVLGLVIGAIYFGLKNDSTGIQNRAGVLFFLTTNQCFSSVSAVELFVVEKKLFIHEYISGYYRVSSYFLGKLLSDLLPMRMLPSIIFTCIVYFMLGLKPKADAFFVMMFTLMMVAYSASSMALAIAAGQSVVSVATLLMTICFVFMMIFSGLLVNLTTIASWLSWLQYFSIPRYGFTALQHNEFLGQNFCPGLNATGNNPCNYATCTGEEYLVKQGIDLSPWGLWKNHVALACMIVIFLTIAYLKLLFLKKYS

Rattus norvegicus [17] = experiment: Toxicity in Wistar Han rat assessed as increase in liver to body weight ratio at >= 30 mg/kg/day, po administered for 14 days; format: organism-based; conditions: in vivo, 336 h
[18] = Toxicity in dog assessed as increase in body temperature at 10 mg/kg, po administered as single dose measured up to 3 days post dose; format: organism-based, Canis lupus familiaris; conditions: in vivo, 72 h
[19] = Drug metabolism in human hepatocytes assessed as monooxidation; format: ADME, cell-based, Hepatocyte
CYP2C9 = CYP2C9 (Homo sapiens, UniProt P11712); experiment: Inhibition of CYP2C9 (unknown origin) at 3 uM relative to control; format: ADME
Sequence of CYP2C9 (P11712 whole entry): as the sequence (P11712 whole entry) above

[20] = molecular target: T2, Solute carrier family 22 member 11 (Homo sapiens, UniProt Q9NSA0); experiment: Inhibition of OAT4 (unknown origin)
T2 sequence (Q9NSA0 whole entry): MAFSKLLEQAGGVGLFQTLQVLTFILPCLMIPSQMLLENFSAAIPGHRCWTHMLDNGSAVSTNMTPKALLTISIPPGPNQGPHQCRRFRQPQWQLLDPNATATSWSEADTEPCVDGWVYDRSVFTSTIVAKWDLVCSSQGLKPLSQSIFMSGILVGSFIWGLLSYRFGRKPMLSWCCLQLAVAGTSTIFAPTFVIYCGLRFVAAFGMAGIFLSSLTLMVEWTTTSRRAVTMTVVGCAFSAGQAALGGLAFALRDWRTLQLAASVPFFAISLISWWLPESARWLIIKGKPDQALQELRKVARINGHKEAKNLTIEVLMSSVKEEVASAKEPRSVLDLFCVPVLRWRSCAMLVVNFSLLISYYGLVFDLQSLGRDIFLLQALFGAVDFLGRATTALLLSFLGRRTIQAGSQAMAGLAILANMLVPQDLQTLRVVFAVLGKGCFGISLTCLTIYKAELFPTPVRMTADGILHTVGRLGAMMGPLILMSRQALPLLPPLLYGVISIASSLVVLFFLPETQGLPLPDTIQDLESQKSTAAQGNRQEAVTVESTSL

[21] = Toxicity in dog assessed as appearance of red mucous membranes of the gum at 30 mg/kg, po administered as single dose; format: organism-based, Canis lupus familiaris; conditions: in vivo
[22] = Toxicity in po dosed dog administered as single dose; format: organism-based, Canis lupus familiaris; conditions: in vivo
[23] = Oral bioavailability in dog at 0.737 mg/kg; format: ADME, organism-based, Canis lupus familiaris; conditions: in vivo
Rattus norvegicus [24] = experiment: Toxicity in Wistar Han rat assessed as mortality at 300 mg/kg, po administered as single dose; format: organism-based; conditions: in vivo
Rattus norvegicus [25] = experiment: Toxicity in Wistar Han rat at <= 100 mg/kg/day, po administered for 14 days by macroscopic analysis; format: organism-based; conditions: in vivo, 336 h
[26] = Oral bioavailability in dog at 3 mg/kg; format: ADME, organism-based, Canis lupus familiaris; conditions: in vivo
[27] = Unbound clearance in dog at 1 mg/kg, iv and 3 mg/kg, po; format: ADME, organism-based, Canis lupus familiaris; conditions: in vivo
[28] = Volume of distribution at steady state in dog at 1 mg/kg, iv and 3 mg/kg, po; format: ADME, organism-based, Canis lupus familiaris; conditions: in vivo, read-out: Vdss
[29] = Average plasma concentration in Wistar Han rat at 100 mg/kg, po administered as single dose measured on day 14; format: ADME, organism-based; conditions: in vivo
[30] = Unbound Cmax in Wistar Han rat at 100 mg/kg, po […] measured on day 14; format: ADME, organism-based; conditions: in vivo

In the case of `O=S(=O)(Nc1ccc(C(F)(F)F)nc1)c1ccccc1C(F)(F)F`, the Activity [1] is reported as “Toxic”, the clearance [2] is reported as 0.014 mL/min/kg and the Drug metabolism [3] is reported as “Metabolite_Detected”. The Activity [4] was “Toxic”, the Activity [5] was “Toxic” and the Activity [6] was “Toxic”. For the same molecule, the Activity [7] was “Toxic”, the IC50 (Cytochrome P450 2C9) was 1.1 µM and the Activity [8] was “<= 30 mg kg-1”. For the same molecule, the deltaT [9] was over 1.1 °C, the Drug metabolism [10] was “Metabolite_Detected” and the IC50 (Cytochrome P450 3A4) was over 30 µM. For the same molecule, the CL free [11] was 1.4 mL/min/kg, the Activity (Rattus norvegicus [12]) was “Non-Toxic” and the Drug metabolism [13] was “Metabolite_Detected”. The Vd [14] was 0.12 L/kg, the Activity (Rattus norvegicus [15]) was “Non-Toxic” and the half-life [16] was 103 h. For the same molecule, the efflux ratio (BCRP (ABCG2)) was 3.3, the Activity (Rattus norvegicus [17]) was “Non-Toxic” and the Activity [18] was “Toxic”. For the same molecule, the Drug metabolism [19] was “Metabolite_Detected”, the inhibition at 3 µM (CYP2C9) was 24% and the IC50 [20] was 9.4 µM. For the same molecule, the Activity [21] was “Toxic”, the MTD [22] was 100 mg/kg and the bioavailability [23] was 104%.
With `O=S(=O)(Nc1cncc(C(F)(F)F)c1)c1ccccc1C(F)(F)F` the Activity (Rattus norvegicus [24]) was “Toxic”, the Activity (Rattus norvegicus [25]) was “Non-Toxic” and the bioavailability [26] was 145%. The CL free [27] was 17.5 mL/min/kg, the Vd [28] was 0.18 L/kg and the Cave [29] was 807 nM. For the same molecule, the fCmax [30] was 2153 nM and the IC50 [20] was 8.5 µM.
